Earlier results as cited in patent US20110177137A1, “NOVEL DOSAGE FORM OF PALIPERIDONE AND PROCESS FOR PREPARING THE SAME” (INTAS PHARMACEUTICALS LIMITED, priority 2008, published 2011).

- solubility in 0.1 N HCl (0.1 N HCl): soluble
- solubility in methyl chloride (methyl chloride): partly soluble
- solubility in water (water): insoluble
SMILES: Cc1nc2n(c(=O)c1CCN1CCC(c3noc4cc(F)ccc34)CC1)CCCC2O (stereo not drawn) [Paliperidone]
